# Biological target: T1, human kinase Mps-1 (Homo sapiens, UniProt P33981)
# T1 construct: N-terminally GST-tagged human full length recombinant Mps-1 kinase; GST (N); purchased Invitrogen, Karslruhe, Germany PV4071
# T1 sequence (P33981 1-857): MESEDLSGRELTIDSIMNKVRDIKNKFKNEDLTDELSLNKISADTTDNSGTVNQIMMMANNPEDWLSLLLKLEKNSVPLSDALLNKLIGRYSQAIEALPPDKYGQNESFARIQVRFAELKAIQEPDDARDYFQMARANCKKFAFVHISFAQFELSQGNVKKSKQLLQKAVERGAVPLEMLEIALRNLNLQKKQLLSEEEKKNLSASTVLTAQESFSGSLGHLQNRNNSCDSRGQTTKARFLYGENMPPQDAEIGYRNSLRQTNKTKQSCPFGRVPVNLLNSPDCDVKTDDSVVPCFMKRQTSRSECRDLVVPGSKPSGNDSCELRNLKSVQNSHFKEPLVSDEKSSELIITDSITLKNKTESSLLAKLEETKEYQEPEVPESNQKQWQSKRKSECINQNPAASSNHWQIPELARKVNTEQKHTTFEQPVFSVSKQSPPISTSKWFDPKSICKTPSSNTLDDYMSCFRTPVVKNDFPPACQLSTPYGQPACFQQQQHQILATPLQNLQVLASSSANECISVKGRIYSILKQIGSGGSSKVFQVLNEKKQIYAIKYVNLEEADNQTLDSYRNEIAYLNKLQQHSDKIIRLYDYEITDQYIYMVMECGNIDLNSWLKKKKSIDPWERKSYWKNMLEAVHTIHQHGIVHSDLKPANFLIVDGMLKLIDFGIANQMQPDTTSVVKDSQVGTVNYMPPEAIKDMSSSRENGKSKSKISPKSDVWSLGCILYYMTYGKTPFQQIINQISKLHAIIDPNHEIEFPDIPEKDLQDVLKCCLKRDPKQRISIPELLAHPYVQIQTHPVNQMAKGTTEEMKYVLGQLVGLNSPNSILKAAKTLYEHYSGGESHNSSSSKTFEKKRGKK
# Experiment: Mps-1 kinase assay (TR-FRET)
# Assay type: biochemical
# Conditions: Mps-1 TR-FRET kinase assay; avg; read-out: Mps1 avg (IC50 [mol/l])
# Description: The human kinase Mps-1 phosphorylates a biotinylated substrate peptide. Detection of the phosphorylated product is achieved by time-resolved fluorescence resonance energy transfer (TR-FRET) from Europium-labelled anti-phospho-Serine/Threonine antibody as donor to streptavidin labelled with cross-linked allophycocyanin (SA-XLent) as acceptor. Compounds are tested for their inhibition of the kinase activity.
# N-terminally GST-tagged human full length recombinant Mps-1 kinase (purchased from Invitrogen, Karslruhe, Germany, cat. no PV4071) was used. As substrate for the kinase reaction a biotinylated peptide of the amino-acid sequence biotin-Ahx-PWDPDDADITEILG (C-terminus in amide form, purchased from Biosyntan GmbH, Berlin) was used.
# For the assay 50 nl of a 100-fold concentrated solution of the test compound in DMSO was pipetted into a black low volume 384we11 microtiter plate (Greiner Bio-One, Frickenhausen, Germany), 2 μl of a solution of Mps-1 in assay buffer [0.1 mM sodium-ortho-vanadate, 10 mM MgCl2,2 mM DTT, 25 mM Hepes pH 7.7, 0.05% BSA (w/v), 0.001% Pluronic F-127] were added and the mixture was incubated for 15 min at 22° C. to allow pre-binding of the test compounds to Mps-1 before the start of the kinase reaction. Then the kinase reaction was started by the addition of 3 μl of a solution of 16.7 μM adenosine-tri-phosphate (ATP, 16.7 μM=>final conc. in the 5 μl assay volume is 10 μM) and peptide substrate (1.67 μM=>final conc. in the 5 μl assay volume is 1 μM) in assay buffer and the resulting mixture was incubated for a reaction time of 60 min at 22° C. The concentration of Mps-1 in the assay was adjusted to the activity of the enzyme lot and was chosen appropriate to have the assay in the linear range, typical enzyme concentrations were in the range of about 0.5 nM (final conc. in the 5 μl assay volume). The reaction was stopped by the addition of 5 μl of a solution of TR-FRET detection reagents (100 mM Hepes pH 7.4, 0.1% BSA, 40 mM EDTA, 140 nM Streptavidin-XLent [#61GSTXLB, Fa. Cis Biointernational, Marcoule, France], 1.5 nM anti-phospho(Ser/Thr)-Europium-antibody [#AD0180, PerkinElmer LAS, Rodgau-Jugesheinn, Germany]. Instead of the 1.5 nM anti-phospho(Ser/Thr)-Europium-antibody a mixture of 2 nM unlabeled anti-phospho ser/thr-pro antibody MPM-2 [Millipore cat. #05-368] and 1 nM LANCE EU-W1024 labeled anti-mouse IgG antibody [Perkin-Elmer, product no. AD0077] can be used).
# The resulting mixture was incubated 1 h at 22° C. to allow the binding of the phosphorylated peptide to the anti-phospho(Ser/Thr)-Europium-antibody. Subsequently the amount of phosphorylated substrate was evaluated by measurement of the resonance energy transfer from the Europium-labelled anti-phospho(Ser/Thr) antibody to the Streptavidin-XLent. Therefore, the fluorescence emissions at 620 nm and 665 nm after excitation at 350 nm was measured in a Viewlux TR-FRET reader (PerkinElmer LAS, Rodgau-Jugesheinn, Germany). The “blank-corrected normalized ratio” (a Viewlux specific readout, similar to the traditional ratio of the emissions at 665 nm and at 622 nm, in which blank and Eu-donor crosstalk are subtracted from the 665 nm signal before the ratio is calculated) was taken as the measure for the amount of phosphorylated substrate. The data were normalised (enzyme reaction without inhibitor=0% inhibition, all other assay components but no enzyme=100% inhibition).
row,Compound,IC50 [µM]
1,"Cc1nsc(Nc2cnc(C(F)(F)F)cn2)c1C(=O)Nc1ccc(OC2CCNCC2)nc1 [Example 6, 3-Methyl-N-[6-(piperidin-4-yloxy)pyridin-3-yl]-5-{[5-(trifluoromethyl)pyrazin-2-yl]amino}-1,2-thiazole-4-carboxamide]",≥ 20
2,"Cc1nsc(Nc2cnc(C(F)(F)F)cn2)c1C(=O)Nc1ccc(OC2CCN(CCF)CC2)nc1 [Example 7, N-(6-{[1-(2-Fluoroethyl)piperidin-4-yl]oxy}pyridin-3-yl)-3-methyl-5-{[5-(trifluoromethyl)pyrazin-2-yl]amino}-1,2-thiazole-4-carboxamide]",≥ 20
3,"Cc1nsc(Nc2cnc(C(F)(F)F)cn2)c1C(=O)Nc1ccc(OC2CCN(CC(F)F)CC2)nc1 [Example 8, N-(6-{[1-(2,2-Difluoroethyl)piperidin-4-yl]oxy}pyridin-3-yl)-3-methyl-5-{[5-(trifluoromethyl)pyrazin-2-yl]amino}-1,2-thiazole-4-carboxamide]",≥ 20
4,"Cc1nsc(Nc2cnc(C(F)(F)F)cn2)c1C(=O)Nc1ccc(OC2CCN(CC(F)(F)F)CC2)nc1 [Example 9, -Methyl-N-(6-{[1-(2,2,2-trifluoroethyl)piperidin-4-yl]oxy}pyridin-3-yl)-5-{[5-(trifluoromethyl)pyrazin-2-yl]amino}-1,2-thiazole-4-carboxamide]",≥ 20
5,"Cc1nsc(Nc2cnc(C(F)(F)F)cn2)c1C(=O)Nc1ccc(OC2CCN(CCC(F)(F)F)CC2)nc1 [Example 10, 3-Methyl-5-{[5-(trifluoromethyl)pyrazin-2-yl]amino}-N-(6-{[1-(3,3,3-trifluoropropyl)-piperidin-4-yl]oxy}pyridin-3-yl)-1,2-thiazole-4-carboxamide]",≥ 20
6,"CC(=O)N1CCC(Oc2ccc(NC(=O)c3c(C)nsc3Nc3cnc(C(F)(F)F)cn3)cn2)CC1 [Example 11, N-{6-[(1-Acetylpiperidin-4-yl)oxy]pyridin-3-yl}-3-methyl-5-{[5-(trifluoromethyl)-pyrazin-2-yl]amino}-1,2-thiazole-4-carboxamide]",≥ 20
7,"Cc1nsc(Nc2cncc(C(F)(F)F)n2)c1C(=O)Nc1ccc(OC2CCN(C(=O)OC(C)(C)C)CC2)nc1 [Example 12, tert-Butyl 4-[(5-{[(3-methyl-5-{[6-(trifluoromethyl)pyrazin-2-yl]amino}-1,2-thiazol-4-yl)carbonyl]amino}pyridin-2-yl)oxy]piperidine-1-carboxylate]",≥ 20
8,"Cc1nsc(Nc2cnc(C(F)(F)F)cn2)c1C(=O)Nc1ccc(C(=O)OC(C)(C)C)cc1 [Example 96, tert-Butyl 4-{[(3-methyl-5-{[5-(trifluoromethyl)pyrazin-2-yl]amino}-1,2-thiazol-4-yl)carbonyl]amino}benzoate]",≥ 20

# Further lines, results first:
row,IC50 [µM],Compound
1,≥ 20,"Cc1nsc(Nc2cnc(C(F)(F)F)cn2)c1C(=O)Nc1ccc(C(=O)O)cc1 [Example 97, 4-{[(3-Methyl-5-{[5-(trifluoromethyl)pyrazin-2-yl]amino}-1,2-thiazol-4-yl)carbony]-amino}benzoic acid]"
2,≥ 20,"Cc1nsc(Nc2ccc(C#N)cn2)c1C(=O)Nc1ccc(C(=O)OC(C)(C)C)cc1 [Example 98, tert-Butyl 4-[({5-[(5-cyanopyridin-2-yl)amino]-3-methyl-1,2-thiazol-4-yl}carbonyl)-amino]benzoate]"
3,9,"Cc1nsc(Nc2cnc3ccccc3n2)c1C(=O)Nc1cccc(C(=O)NCC(=O)O)c1 [Example 99, N-[3-({[3-Methyl-5-(quinoxalin-2-ylamino)-1,2-thiazol-4-yl]carbonyl}amino)benzoy]-glycine]"
4,12,"COC(=O)CNC(=O)c1cccc(NC(=O)c2c(C)nsc2Nc2cnc3ccccc3n2)c1 [Example 100, Methyl N-[3-({[3-methyl-5-(quinoxalin-2-ylamino)-1,2-thiazol-4-yl]carbonyl}amino)-benzoyl]glycinate]"
5,18,"Cc1nsc(Nc2cnc3ccccc3n2)c1C(=O)Nc1cccc(C(=O)N2CCNCC2)c1 [Example 101, 3-Methyl-N-[3-(piperazin-1-ylcarbonyl)phenyl]-5-(quinoxalin-2-ylamino)-1,2-thiazole-4-carboxamide]"
6,≥ 20,"Cc1nsc(Nc2cnc3ccccc3n2)c1C(=O)Nc1cccc(C(=O)N2CCN(C)CC2)c1 [Example 102, 3-Methyl-N-{3-[(4-methylpiperazin-1-yl)carbonyl]phenyl}-5-(quinoxalin-2-ylamino)-1,2-thiazole-4-carboxamide]"
7,13,"Cc1nsc(Nc2cnc3ccccc3n2)c1C(=O)Nc1cccc(C(=O)N[C@@H](CCC(N)=O)C(=O)O)c1 [Example 103, N^2-[3-({[3-Methyl-5-(quinoxalin-2-ylamino)-1,2-thiazol-4-yl]carbonyl}amino)-benzoyl]glutamine]"
8,16,"Cc1nsc(Nc2cnc3ccccc3n2)c1C(=O)Nc1cccc(C(=O)N[C@H](C(=O)O)[C@@H](C)OC(C)(C)C)c1 [Example 104, O-tert-Butyl-N-[3-({[3-methyl-5-(quinoxalin-2-ylamino)-1,2-thiazol-4-yl]-carbonyl}amino)benzoyl]threonine]"
9,6.5,"Cc1nsc(Nc2cnc3ccccc3n2)c1C(=O)Nc1cccc(C(=O)N[C@H](C(=O)O)[C@@H](C)O)c1 [Example 105, N-[3-({[3-methyl-5-(quinoxalin-2-ylamino)-1,2-thiazol-4-yl]carbonyl}amino)-benzoyl]threonine]"
10,≥ 20,"Cc1noc(-c2cccc(NC(=O)c3c(C)nsc3Nc3cnc4ccccc4n3)c2)n1 [Example 106, 3-Methyl-N-[3-(3-methyl-1,2,4-oxadiazol-5-yl)phenyl]-5-(quinoxalin-2-ylamino)-1,2-thiazole-4-carboxamide]"
11,≥ 20,"Cc1nsc(Nc2cnc3ccccc3n2)c1C(=O)Nc1cccc(-c2nnc(C(C)(C)C)o2)c1 [Example 107, N-[3-(5-tert-Butyl-1,3,4-oxadiazol-2-yl)phenyl]-3-methyl-5-(quinoxalin-2-ylamino)-1,2-thiazole-4-carboxamide]"
12,≥ 20,"Cc1nsc(Nc2cnc3ccccc3n2)c1C(=O)Nc1cccc(-c2nc(C(C)(C)C)no2)c1 [Example 108, N-[3-(3-tert-Butyl-1,2,4-oxadiazol-5-yl)phenyl]-3-methyl-5-(quinoxalin-2-ylamino)-1,2-thiazole-4-carboxamide]"

# Reference: patent US20170334899A1, “AMINO-SUBSTITUTED ISOTHIAZOLES” (Bayer Pharma Aktiengesellschaft, priority 2014, published 2017)
